Measurements as given in article PMC7837508, “Interactions of the Diazabicyclooctane Serine β-Lactamase Inhibitor ETX1317 with Target Enzymes” (ACS Infectious Diseases, 2020).
Like-named read-outs stand apart in the source and are kept apart here.

Columns and labels:
AmpC = target: T1, AmpC (Pseudomonas aeruginosa, UniProt P24735); assay: Partition ratio measurement; type: biochemical; conditions: incubation 1 h, ambient temperature
T1 construct: made in house
Description: (§1) Partition ratios were measured as described previously[10] at ambient temperature in Buffer A. ETX1317 was freshly dissolved in assay buffer and an arithmetic dilution series was prepared from 0 to 12 μM in 1.2 μM steps. Each of these was mixed with an equal volume of 6 μM β-lactamase. At each time point, the mixtures were diluted in buffer to 2-fold the final reaction concentration of enzyme. Then, 22.5 μL of enzyme + inhibitor solutions were mixed with 22.5 μL of 200 μM nitrocefin substrate in a clear polystyrene 384-well assay plate. The absorbance at 490 nm was monitored at 10-s intervals for 10 min with a Spectramax Plus 384 plate reader. The slopes of the progress curves (ΔA490/s) were calculated. The percent of the control value for each inhibitor concentration was plotted versus the inhibitor:enzyme molar ratio. A best-fit line was calculated with a fixed point at 100% on the y-axis.

CTX-M-15 [1] = target: T2, CTX-M-15 (Escherichia coli, UniProt Q9EXV5); assay: Partition ratio measurement; type: biochemical; conditions: CTX-M-15, incubation 1 h, ambient temperature
T2 construct: made in house
T2 sequence (Q9EXV5 29-291, species assumed): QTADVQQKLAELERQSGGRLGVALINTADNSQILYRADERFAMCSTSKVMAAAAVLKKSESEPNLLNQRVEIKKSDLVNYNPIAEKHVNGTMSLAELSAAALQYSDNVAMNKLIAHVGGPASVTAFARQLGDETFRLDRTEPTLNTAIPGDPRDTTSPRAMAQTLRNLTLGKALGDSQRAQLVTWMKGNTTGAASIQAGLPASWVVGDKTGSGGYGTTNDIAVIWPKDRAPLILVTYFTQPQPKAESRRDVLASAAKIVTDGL
Description: as §1

KPC-2 [2] = target: T3, KPC-2 (Klebsiella pneumoniae, UniProt Q9F663); assay: Partition ratio measurement; type: biochemical
T3 construct: made in house
T3 sequence (Q9F663 25-293, looked up, species assumed): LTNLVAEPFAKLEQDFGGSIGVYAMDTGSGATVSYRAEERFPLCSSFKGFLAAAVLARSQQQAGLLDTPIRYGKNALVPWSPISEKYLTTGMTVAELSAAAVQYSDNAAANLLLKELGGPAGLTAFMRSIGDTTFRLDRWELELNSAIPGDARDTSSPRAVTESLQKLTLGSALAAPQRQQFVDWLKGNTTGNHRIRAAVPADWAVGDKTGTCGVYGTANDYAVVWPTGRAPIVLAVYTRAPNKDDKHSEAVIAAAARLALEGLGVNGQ
Description: as §1

OXA-48 [3] = target: T4, OXA-48 (Klebsiella pneumoniae, UniProt Q6XEC0); assay: Partition ratio measurement; type: biochemical; conditions: OXA-48, incubation 1 h, ambient temperature
T4 construct: made in house
T4 sequence (Q6XEC0 23-265, looked up, species assumed): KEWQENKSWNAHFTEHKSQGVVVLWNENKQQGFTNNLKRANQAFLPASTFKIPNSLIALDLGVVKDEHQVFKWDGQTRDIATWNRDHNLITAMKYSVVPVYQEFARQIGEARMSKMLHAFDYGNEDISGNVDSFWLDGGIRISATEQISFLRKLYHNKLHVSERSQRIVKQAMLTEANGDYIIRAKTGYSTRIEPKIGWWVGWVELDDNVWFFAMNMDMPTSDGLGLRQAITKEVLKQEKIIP
Description: as §1

SHV-5 [4] = target: T5, SHV-5 (Klebsiella pneumoniae, UniProt P0A3M1); assay: Partition ratio measurement; type: biochemical; conditions: SHV-5, incubation 1 h, ambient temperature
T5 construct: made in house
T5 sequence (P0A3M1 22-286, species assumed): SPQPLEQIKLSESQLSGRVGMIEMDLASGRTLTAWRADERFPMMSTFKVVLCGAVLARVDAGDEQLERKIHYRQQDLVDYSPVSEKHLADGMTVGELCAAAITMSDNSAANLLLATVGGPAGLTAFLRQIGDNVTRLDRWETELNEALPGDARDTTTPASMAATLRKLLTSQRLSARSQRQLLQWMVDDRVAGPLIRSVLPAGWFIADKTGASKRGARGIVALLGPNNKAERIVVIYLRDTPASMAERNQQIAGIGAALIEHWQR
Description: as §1

CTX-M-15 [5] = target: T2, CTX-M-15; assay: koff measurement by jump dilution; type: biochemical; conditions: CTX-M-15, jump dilution, ambient temperature
Description: (§2) Dissociation rate constants (koff) were measured by the jump-dilution method at ambient temperature as described previously.[10] Enzymes at 500 000-fold the final β-lactamase assay concentration (see above) were incubated for 15–20 min with 3-fold molar excess of freshly dissolved ETX1317 at ambient temperature in Buffer A. The mixtures were then diluted 250 000-fold with Buffer A, and 22.5 μL of the dilutions was mixed with 22.5 μL of 200 μM nitrocefin in Buffer A. The absorbance at 490 nm was monitored at 30 s intervals for 2 h at ambient temperature with a Spectramax Plus 384 plate reader. Progress curves were fit by nonlinear regression using XLfit (ID Business Solutions, Boston, MA) to the following equation: [drawing 2] where P is A490, C is the initial A490, V0 is the initial rate of absorbance increase, Vs is the final rate of absorbance increase, t is time in seconds, and k is the first order rate constant for enzyme reactivation due to inhibitor dissociation, koff.

E. cloacae P99 [6] = target: T6, E. cloacae P99 (Enterobacter cloacae, UniProt P05364); assay: koff measurement by jump dilution; type: biochemical; conditions: ambient temperature
T6 construct: made in house
T6 sequence (P05364 21-381): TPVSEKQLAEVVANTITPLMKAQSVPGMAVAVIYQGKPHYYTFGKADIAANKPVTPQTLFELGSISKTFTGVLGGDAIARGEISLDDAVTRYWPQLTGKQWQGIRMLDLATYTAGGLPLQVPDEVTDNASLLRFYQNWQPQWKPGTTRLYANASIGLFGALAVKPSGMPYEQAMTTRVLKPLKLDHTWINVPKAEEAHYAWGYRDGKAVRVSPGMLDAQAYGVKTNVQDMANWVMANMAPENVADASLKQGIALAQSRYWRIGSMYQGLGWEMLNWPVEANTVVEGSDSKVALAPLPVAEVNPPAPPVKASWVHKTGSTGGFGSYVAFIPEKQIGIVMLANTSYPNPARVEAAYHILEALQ
Description: as §2

KPC-2 [7] = target: T3, KPC-2; assay: koff measurement by jump dilution; type: biochemical; conditions: KPC-2, jump dilution, ambient temperature
Description: as §2

P. aeruginosa AmpC [8] = target: T7, P. aeruginosa AmpC (Pseudomonas aeruginosa, UniProt P24735); assay: koff measurement by jump dilution; type: biochemical; conditions: ambient temperature
T7 construct: made in house
T7 sequence (P24735 27-397): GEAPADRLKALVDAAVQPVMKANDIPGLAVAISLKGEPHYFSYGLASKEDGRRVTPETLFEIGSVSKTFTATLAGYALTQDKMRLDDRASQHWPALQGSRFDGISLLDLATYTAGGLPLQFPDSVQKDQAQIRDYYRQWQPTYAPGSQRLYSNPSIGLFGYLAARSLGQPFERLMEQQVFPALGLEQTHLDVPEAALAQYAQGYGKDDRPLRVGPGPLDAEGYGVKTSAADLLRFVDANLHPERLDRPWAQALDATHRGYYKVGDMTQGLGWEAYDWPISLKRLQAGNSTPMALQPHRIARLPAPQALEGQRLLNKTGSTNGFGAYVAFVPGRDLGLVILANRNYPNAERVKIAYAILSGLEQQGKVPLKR
Description: as §2

SHV-5 [9] = target: T5, SHV-5; assay: koff measurement by jump dilution; type: biochemical; conditions: SHV-5, jump dilution, ambient temperature
Description: as §2

TEM-1 [10] = target: T8, TEM-1 (Escherichia coli, UniProt P62593); assay: koff measurement by jump dilution; type: biochemical; conditions: TEM-1, jump dilution, ambient temperature
T8 construct: made in house
T8 sequence (P62593 24-286 limits assumed): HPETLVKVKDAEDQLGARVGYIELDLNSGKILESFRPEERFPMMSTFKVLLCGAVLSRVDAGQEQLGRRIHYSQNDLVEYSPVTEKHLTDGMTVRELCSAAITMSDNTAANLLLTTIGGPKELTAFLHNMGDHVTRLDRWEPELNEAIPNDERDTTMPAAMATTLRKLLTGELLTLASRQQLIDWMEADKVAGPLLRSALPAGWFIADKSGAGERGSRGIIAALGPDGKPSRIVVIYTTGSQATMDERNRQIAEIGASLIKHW
Description: as §2

CTX-M-15 [11] = target: T2, CTX-M-15; assay: β-lactamase acylation exchange (intact protein mass spectrometry); type: binding; conditions: donor CTX-M-15, acceptor OXA-48, ambient temperature
Description: (§3) β-Lactamase acylation exchange experiments and intact protein mass spectrometry were performed as described previously.[10] OXA-48 was used as the acceptor enzyme in most cases because of the stability of the ETX1317–OXA-48 complex. When OXA-48 was the donor enzyme, CTX-M-15 was used as the acceptor. Each β-lactamase (5 μM) was incubated with or without 25 μM ETX1317 in a 60 μL volume of 50 mM HEPES (pH 7.0) buffer for 1 h at ambient temperature. The samples were diluted to 400 μL with ice-cold buffer and then concentrated to ∼40 μL with Microcon YM-10 centrifugal ultrafilters (Millipore-Sigma, Burlington, MA) at 14 000g for 45 min at 4 °C. The retentates were rediluted to 400 μL with ice-cold buffer and reconcentrated as before. This was repeated a further time, leaving no significant amount of unbound ETX1317. The sample volumes were restored to 60 μL with ice-cold buffer and the samples were divided into two equal aliquots of 30 μL. Buffer (6 μL) was added to one aliquot, and 6 μL of acceptor enzyme was added to the other. The final acceptor enzyme concentrations were 5 μM. Samples were incubated at ambient temperature for the times indicated and then stored at −80 °C until analysis. LC-MS analysis was performed on a Triple TOF5600+ (AB Sciex, Redwood City, CA) equipped with a DuoSpray Ion Source and a Shimadzu LC 20-AD HPLC system (Shimadzu Scientific Instruments, Marlborough, MA). A 2 μL portion of each sample was injected onto a Poroshell 300SB-C8 75 × 2.1 mm, 5 μm column (Agilent) at 30 °C with a gradient of acetonitrile (5–95%) in 0.1% formic acid for 3 min followed by a 1 min hold at 95% before returning to 5% acetonitrile at a flow rate of 0.4 mL/min. The mass spectrometer was operated in positive ion and intact protein mode with source temperature of 450 °C. LC-MS data were acquired in the TOF MS mode for m/z+ from 600 to 2000. Nebulizer gas (GS1), heater gas (GS2), and curtain gas were set at 60, 70, and 30 psi, respectively. Ion spray voltage was 5500 V. Declustering voltage was 100 V, and collision energy was 10 V. Peak masses for protein species were determined following spectrum deconvolution using PeakView version 2.2 software. Mass accuracy of intact proteins is ±1 Da.

Enterobacter cloacae P99 = target: T9, Enterobacter cloacae P99 (Enterobacter cloacae, UniProt P05364); assay: as above; type: binding; conditions: donor P99, acceptor OXA-48, ambient temperature
T9 construct: made in house
T9 sequence (P05364 21-381): as the sequence (P05364 21-381) above
Description: as §3

KPC-2 [12] = target: T3, KPC-2; assay: as above; type: binding; conditions: donor KPC-2, acceptor OXA-48, 19 h, ambient temperature
Description: as §3

OXA-48 [13] = target: T4, OXA-48; assay: as above; type: binding; conditions: donor OXA-48, acceptor CTX-M-15, 19 h, ambient temperature, no added bicarbonate
Description: as §3

[14] = target: T10, Pseudomonas aeruginosa AmpC (Pseudomonas aeruginosa, UniProt P24735); assay: as above; type: binding; conditions: acceptor OXA-48, 1, 2 and 17 h, ambient temperature
T10 construct: made in house
T10 sequence (P24735 27-397): as the sequence (P24735 27-397) above
Description: as §3

SHV-5 [15] = target: T5, SHV-5; assay: as above; type: binding; conditions: donor SHV-5, acceptor OXA-48, ambient temperature
Description: as §3

TEM-1 [16] = target: T8, TEM-1; assay: as above; type: binding; conditions: donor TEM-1, acceptor OXA-48, ambient temperature
Description: as §3

CTX-M-15 [17] = target: T2, CTX-M-15; conditions: CTX-M-15, ambient temperature, pH 7.0, nitrocefin; ref 6 and 7; cited from earlier work
KPC-2 [18] = target: T3, KPC-2; conditions: KPC-2, ambient temperature, pH 7.0, nitrocefin; ref 6 and 7; cited from earlier work
TEM-1 [19] = target: T8, TEM-1; parameters: method as in PMID 28665414, PMID 32658473; conditions: ref 6 and 7, cited from earlier work; for kinact/Ki: TEM-1, ambient temperature, pH 7.0, nitrocefin
P. aeruginosa AmpC [20] = target: T7, P. aeruginosa AmpC; conditions: ambient temperature, pH 7.0, nitrocefin, ref 6 and 7; cited from earlier work
E. cloacae P99 [21] = target: T6, E. cloacae P99; conditions: cited from earlier work
OXA-24 = conditions: OXA-24, ambient temperature, pH 7.0, nitrocefin; ref 6 and 7; cited from earlier work
OXA-48 [22] = target: T4, OXA-48; conditions: OXA-48, ambient temperature, pH 7.0, nitrocefin; ref 6 and 7; cited from earlier work
CTX-M-14 = tested on: CTX-M-14; parameters: method as in PMID 32658473; conditions: higher than that of avibactam; cited from earlier work
SHV-5 [23] = target: T5, SHV-5; conditions: SHV-5, ambient temperature, pH 7.0, nitrocefin; ref 6 and 7; cited from earlier work
OXA-10 = conditions: OXA-10, ambient temperature, pH 7.0, nitrocefin; ref 6 and 7; cited from earlier work
OXA-23 = conditions: OXA-23, ambient temperature, pH 7.0, nitrocefin; ref 6 and 7; cited from earlier work
CTX-M-15 [24] = target: T2, CTX-M-15; conditions: cited from earlier work
KPC-2 [25] = target: T3, KPC-2; conditions: cited from earlier work
SHV-5 [26] = target: T5, SHV-5; parameters: method as in PMID 28835096; conditions: cited from earlier work
TEM-1 [27] = target: T8, TEM-1; conditions: cited from earlier work
P. aeruginosa AmpC [28] = target: T7, P. aeruginosa AmpC; conditions: cited from earlier work
E. cloacae P99 [29] = target: T6, E. cloacae P99; conditions: cited from earlier work; remark: listed apart in the source
OXA-48 [30] = target: T4, OXA-48; conditions: OXA-48, 37 °C, discontinuous jump dilution method covering 6 h; cited from earlier work
[31] = E. cloacae P99, ambient temperature, pH 7.0, nitrocefin, ref 6 and 7

T1 sequence (P24735 27-397): as above

## CC1=C[C@@H](C(N)=O)N2C[C@@H]1N(O[C@H](F)C(=O)O)C2=O [ETX1317]
AmpC
  partition ratio: 1.0
CTX-M-15 [1]
  partition ratio: 0.7
KPC-2 [2]; KPC-2, 15 min incubation (not shown)
  partition ratio: 1.1
KPC-2 [2]; KPC-2, incubation of enzyme and inhibitor 3 h, ambient temperature
  partition ratio: 1.1
OXA-48 [3]
  partition ratio: 1.1
SHV-5 [4]
  partition ratio: 0.9
CTX-M-15 [5]
  koff: 0.00013 s⁻¹
E. cloacae P99 [6]
  koff: 9.2e-05 s⁻¹
KPC-2 [7]
  koff: 0.00052 s⁻¹
P. aeruginosa AmpC [8]
  koff: 0.0006 s⁻¹
SHV-5 [9]
  koff: 0.002 s⁻¹
TEM-1 [10]
  koff: 0.008 s⁻¹
CTX-M-15 [11]
  acylation exchange (recyclization and dissociation of intact inhibitor) from donor to acceptor enzyme: observed
Enterobacter cloacae P99
  acylation exchange (recyclization and dissociation of intact inhibitor) from donor to acceptor enzyme: observed
KPC-2 [12]
  acylation exchange (recyclization and dissociation of intact inhibitor) from donor to acceptor enzyme: observed
OXA-48 [13]
  acylation exchange (recyclization and dissociation of intact inhibitor) from donor to acceptor enzyme: lack of acylation exchange
[14]
  acylation exchange (recyclization and dissociation of intact inhibitor) from donor to acceptor enzyme: observed
SHV-5 [15]
  acylation exchange (recyclization and dissociation of intact inhibitor) from donor to acceptor enzyme: observed
TEM-1 [16]
  acylation exchange (recyclization and dissociation of intact inhibitor) from donor to acceptor enzyme: observed
CTX-M-15 [17]
  kinact/Ki: 4.8 (±0.4) × 10^6 M^–1 s^–1
KPC-2 [18]
  kinact/Ki: 4.9 (±0.2) × 10^4 M^–1 s^–1
TEM-1 [19]; TEM-1, equilibrium dissociation constant, inhibition not time-dependent on 30 s time scale
  Ki: 0.34 nM
P. aeruginosa AmpC [20]
  kinact/Ki: 1.20 (±0.04) × 10^4 M^–1 s^–1
E. cloacae P99 [21]; [31]
  kinact/Ki: 3.9 (±0.2) × 10^4 M^–1 s^–1
OXA-24
  kinact/Ki: 4.6 (±0.2) × 10^3 M^–1 s^–1
OXA-48 [22]
  kinact/Ki: 5.3 (±0.2) × 10^4 M^–1 s^–1
CTX-M-14
  potency of CTX-M-14 inhibition relative to avibactam: about 10 fold

## NC(=O)[C@@H]1CC[C@@H]2CN1C(=O)N2OS(=O)(=O)O [avibactam]
CTX-M-15 [17]
  kinact/Ki: 8 × 10^5 M^–1 s^–1
KPC-2 [18]
  kinact/Ki: 6 × 10^3 M^–1 s^–1
SHV-5 [23]
  kinact/Ki: 1 × 10^5 M^–1 s^–1
TEM-1 [19]
  kinact/Ki: 4 × 10^5 M^–1 s^–1
P. aeruginosa AmpC [20]
  kinact/Ki: 3 × 10^3 M^–1 s^–1
E. cloacae P99 [21]; pH 7
  kinact/Ki: 8 × 10^3 M^–1 s^–1
OXA-10
  kinact/Ki: 70 M^–1 s^–1
OXA-24
  kinact/Ki: 80 M^–1 s^–1
OXA-48 [22]
  kinact/Ki: 5 × 10^3 M^–1 s^–1

## CC1=C[C@@H]2CN(C(=O)N2OS(=O)(=O)O)[C@@H]1C(N)=O [durlobactam]
CTX-M-15 [17]
  kinact/Ki: 7 (±2) × 10^6 M^–1 s^–1
KPC-2 [18]
  kinact/Ki: 9.3 (±0.6) × 10^5 M^–1 s^–1
SHV-5 [23]
  kinact/Ki: 6.4 (±0.5) × 10^6 M^–1 s^–1
TEM-1 [19]
  kinact/Ki: 1.4 (±0.6) × 10^7 M^–1 s^–1
P. aeruginosa AmpC [20]
  kinact/Ki: 9 (±5) × 10^5 M^–1 s^–1
E. cloacae P99 [21]; [31]
  kinact/Ki: 2.3 (±0.4) × 10^6 M^–1 s^–1
OXA-10
  kinact/Ki: 9 (±2) × 10^3 M^–1 s^–1
OXA-23
  kinact/Ki: 5.1 (±0.2) × 10^3 M^–1 s^–1
OXA-24
  kinact/Ki: 9 (±2) × 10^3 M^–1 s^–1
OXA-48 [22]
  kinact/Ki: 8 (±2) × 10^5 M^–1 s^–1
CTX-M-15 [24]
  koff: 2.2 (±0.5) × 10^–4 s^–1
KPC-2 [25]
  koff: 1.0 (±0.1) × 10^–3 s^–1
SHV-5 [26]
  koff: 5.5 (±0.3) × 10^–4 s^–1
TEM-1 [27]
  koff: 1.4 (±0.2) × 10^–3 s^–1
P. aeruginosa AmpC [28]
  koff: 4 (±1) × 10^–3 s^–1
E. cloacae P99 [29]
  koff: 3.4 (±0.5) × 10^–4 s^–1
OXA-48 [30]
  koff: 2.5 (±0.3) × 10^–5 s^–1
